Patent US20190134005A1 (BioMarin Pharmaceutical Inc., priority 2016, published 2019)

molecular target: T1, human CGT (Homo sapiens, UniProt Q16880); assay: Assay 1: CGT Enzymatic Assay (RapidFire/MS/MS, 0.01% Tween 80); format: biochemical; details: Table 1, Compounds of Formula (I) and Formula (II); CGT enzymatic assay; read-out: IC50
T1 sequence (Q16880 21-541): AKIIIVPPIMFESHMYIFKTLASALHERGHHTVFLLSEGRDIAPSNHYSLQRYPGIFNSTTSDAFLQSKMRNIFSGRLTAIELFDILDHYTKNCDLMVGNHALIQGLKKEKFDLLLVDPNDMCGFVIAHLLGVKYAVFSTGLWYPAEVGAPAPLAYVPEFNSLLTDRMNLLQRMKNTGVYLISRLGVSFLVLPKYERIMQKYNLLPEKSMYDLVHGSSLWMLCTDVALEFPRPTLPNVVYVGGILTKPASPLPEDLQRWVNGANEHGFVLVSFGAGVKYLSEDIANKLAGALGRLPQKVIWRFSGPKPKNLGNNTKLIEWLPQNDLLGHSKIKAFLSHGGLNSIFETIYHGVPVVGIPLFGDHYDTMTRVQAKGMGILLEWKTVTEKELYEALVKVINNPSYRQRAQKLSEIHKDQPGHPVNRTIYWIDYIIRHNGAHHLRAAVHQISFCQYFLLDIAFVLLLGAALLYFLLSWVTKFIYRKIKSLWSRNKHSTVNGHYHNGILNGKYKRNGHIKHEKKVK

Row | Compound | IC50
1 | CCC1N(c2ccc(F)cc2)C(=O)N(c2ccc(F)cc2)C1(O)c1cccc(C(F)(F)F)c1 (stereo not shown) [Compound 139, 5-ethyl-1,3-bis(4-fluorophenyl)-4-hydroxy-4-(3-(trifluoromethyl)phenyl)imidazolidin-2-one] | 1 to 10 µM
2 | CC1N(c2ccc(Cl)cc2)C(=O)N(c2ccc(Cl)cc2)C1(O)c1cccc(C(C)(C)O)c1 (stereo not shown) [Compound 140, 1,3-bis(4-chlorophenyl)-4-hydroxy-4-(3-(2-hydroxypropan-2-yl)phenyl)-5-methylimidazolidin-2-one] | 1 to 10 µM
3 | C[C@@H]1N(c2ccc(Cl)cc2)C(=O)N(c2ccc(Cl)cc2)C1(O)c1cccc(C(C)(C)O)c1 (stereo partly drawn) [Compound 140-1, (5S)-1,3-bis(4-chlorophenyl)-4-hydroxy-4-(3-(2-hydroxypropan-2-yl)phenyl)-5-methylimidazolidin-2-one] | > 50 µM
4 | C[C@H]1N(c2ccc(Cl)cc2)C(=O)N(c2ccc(Cl)cc2)C1(O)c1cccc(C(C)(C)O)c1 (stereo partly drawn) [Compound 140-2, (5R)-1,3-bis(4-chlorophenyl)-4-hydroxy-4-(3-(2-hydroxypropan-2-yl)phenyl)-5-methylimidazolidin-2-one] | 1 to 10 µM
5 | O=C1N(c2ccc(Br)cc2)C(=O)C(O)(c2ccccc2)N1c1ccc(Br)cc1 (stereo not shown) [Compound 141, 1,3-bis(4-bromophenyl)-5-hydroxy-5-phenylimidazolidine-2,4-dione] | 10 to 50 µM
6 | CCC1(O)C(=O)N(c2ccc(Br)cc2)C(=O)N1c1ccc(Br)cc1 (stereo not shown) [Compound 143, 1,3-bis(4-bromophenyl)-5-ethyl-5-hydroxyimidazolidine-2,4-dione] | 10 to 50 µM
7 | COc1ccc(C2(O)C(=O)N(c3ccc(Br)cc3)C(=O)N2c2ccc(Br)cc2)cc1 (stereo not shown) [Compound 144, 1,3-bis(4-bromophenyl)-5-hydroxy-5-(4-methoxyphenyl)imidazolidine-2,4-dione] | 50 to 100 µM
8 | CC(C)c1ccc(N2C(=O)N(c3ccc(C(C)C)cc3)C(O)(c3ccccc3)C2=O)cc1 (stereo not shown) [Compound 145, 5-hydroxy-1,3-bis(4-isopropylphenyl)-5-phenylimidazolidine-2,4-dione] | 50 to 100 µM
9 | O=C1N(c2ccc(Cl)cc2)C2(CCCC2)C(O)(c2cccc(OC(F)(F)F)c2)N1c1ccc(Cl)cc1 (stereo not shown) [Compound 146, 1,3-bis(4-chlorophenyl)-4-hydroxy-4-(3-(trifluoromethoxy)phenyl)-1,3-diazaspiro[4.4]nonan-2-one] | < 1 µM
10 | O=C1N(c2ccc(Cl)cc2)C(=O)C(O)(c2ccccc2)N1c1ccc(Cl)cc1 (stereo not shown) [Compound 147, 1,3-bis(4-chlorophenyl)-5-hydroxy-5-phenylimidazolidine-2,4-dione] | 10 to 50 µM
11 | O=C1N(c2ccc(Br)cc2)C(=O)C(O)(c2ccc3ccccc3c2)N1c1ccc(Br)cc1 (stereo not shown) [Compound 148, 1,3-bis(4-bromophenyl)-5-hydroxy-5-(naphthalen-2-yl)imidazolidine-2,4-dione] | 50 to 100 µM
12 | CC1(c2cccc(Cl)c2)C(O)N(c2ccc(Cl)cc2)C(=O)N1c1ccc(Cl)cc1 (stereo not shown) [Compound 149, 4-(3-chlorophenyl)-1,3-bis(4-chlorophenyl)-5-hydroxy-4-methylimidazolidin-2-one] | < 1 µM
13 | O=C1N(c2ccc(Cl)cc2)C2(COC2)C(O)(c2cccc(OC(F)(F)F)c2)N1c1ccc(Cl)cc1 (stereo not shown) [Compound 150, 5,7-bis(4-chlorophenyl)-8-hydroxy-8-(3-(trifluoromethoxy)phenyl)-2-oxa-5,7-diazaspiro[3.4]octan-6-one] | < 1 µM
14 | N#Cc1cccc(C2(O)N(c3ccc(Cl)cc3)C(=O)N(c3ccc(Cl)cc3)C23COC3)c1 (stereo not shown) [Compound 151, 3-(5,7-bis(4-chlorophenyl)-8-hydroxy-6-oxo-2-oxa-5,7-diazaspiro[3.4]octan-8-yl)benzonitrile] | < 1 µM
15 | CCCCC1(O)C(=O)N(c2ccc(Br)cc2)C(=O)N1c1ccc(Br)cc1 (stereo not shown) [Compound 152, 1,3-bis(4-bromophenyl)-5-butyl-5-hydroxyimidazolidine-2,4-dione] | 50 to 100 µM
16 | CC(C)c1ccc(C2(O)C(=O)N(c3ccccc3)C(=O)N2c2ccccc2)cc1 (stereo not shown) [Compound 153, 5-hydroxy-5-(4-isopropylphenyl)-1,3-diphenylimidazolidine-2,4-dione] | > 50 µM
17 | O=C1N(c2ccc(Cl)cc2)C(=O)C(O)(c2ccc(Cl)cc2)N1c1ccc(Cl)cc1 (stereo not shown) [Compound 154, 1,3,5-tris(4-chlorophenyl)-5-hydroxyimidazolidine-2,4-dione] | 50 to 100 µM

Row | Compound | IC50
18 | O=C1N(c2ccc(Cl)cc2F)C(=O)C(O)(c2ccccc2)N1c1ccc(Cl)cc1F (stereo not shown) [Compound 155, 1,3-bis(4-chloro-2-fluorophenyl)-5-hydroxy-5-phenylimidazolidine-2,4-dione] | > 50 µM
19 | O=C1N(c2ccccc2)C(=O)C(O)(c2ccc(OC3CC3)cc2)N1c1ccccc1 (stereo not shown) [Compound 156, 5-(4-cyclopropoxyphenyl)-5-hydroxy-1,3-diphenylimidazolidine-2,4-dione] | > 50 µM
20 | O=C1N(c2ccc(Cl)cc2)C(C2CC2)C(O)(c2cccc(OC(F)F)c2)N1c1ccc(Cl)cc1 (stereo not shown) [Compound 233, 1,3-bis(4-chlorophenyl)-5-cyclopropyl-4-(3-(difluoromethoxy)phenyl)-4-hydroxyimidazolidin-2-one] | < 1 µM
21 | O=C1N(c2ccc(Cl)cc2)[C@@H](C2CC2)C(O)(c2cccc(OC(F)F)c2)N1c1ccc(Cl)cc1 (stereo partly drawn) [Compound 233-1, (5S)-1,3-bis(4-chlorophenyl)-5-cyclopropyl-4-(3-(difluoromethoxy)phenyl)-4-hydroxyimidazolidin-2-one] | < 1 µM
22 | O=C1N(c2ccc(Cl)cc2)[C@H](C2CC2)C(O)(c2cccc(OC(F)F)c2)N1c1ccc(Cl)cc1 (stereo partly drawn) [Compound 233-2, (5R)-1,3-bis(4-chlorophenyl)-5-cyclopropyl-4-(3-(difluoromethoxy)phenyl)-4-hydroxyimidazolidin-2-one] | < 1 µM
23 | O=C1N(c2ccc(Cl)cc2)C2(CCOC2)C(O)(c2cccc(OC(F)(F)F)c2)N1c1ccc(Cl)cc1 (stereo not shown) [Compound 234, 1,3-bis(4-chlorophenyl)-4-hydroxy-4-(3-(trifluoromethoxy)phenyl)-7-oxa-1,3-diazaspiro[4.4]nonan-2-one] | < 1 µM
24 | O=C1N(c2ccc(Cl)cc2)[C@]2(CCOC2)[C@](O)(c2cccc(OC(F)(F)F)c2)N1c1ccc(Cl)cc1 [Compound 234-1, (4R,5S)-1,3-bis(4-chlorophenyl)-4-hydroxy-4-(3-(trifluoromethoxy)phenyl)-7-oxa-1,3-diazaspiro[4.4]nonan-2-one] | < 1 µM
25 | O=C1N(c2ccc(Cl)cc2)[C@]2(CCOC2)[C@@](O)(c2cccc(OC(F)(F)F)c2)N1c1ccc(Cl)cc1 [Compound 234-2, (4S,5S)-1,3-bis(4-chlorophenyl)-4-hydroxy-4-(3-(trifluoromethoxy)phenyl)-7-oxa-1,3-diazaspiro[4.4]nonan-2-one] | < 1 µM
26 | O=C1N(c2ccc(Cl)cc2)[C@@]2(CCOC2)[C@](O)(c2cccc(OC(F)(F)F)c2)N1c1ccc(Cl)cc1 [Compound 234-3, (4R,5R)-1,3-bis(4-chlorophenyl)-4-hydroxy-4-(3-(trifluoromethoxy)phenyl)-7-oxa-1,3-diazaspiro[4.4]nonan-2-one] | < 1 µM
27 | O=C1N(c2ccc(Cl)cc2)[C@@]2(CCOC2)[C@@](O)(c2cccc(OC(F)(F)F)c2)N1c1ccc(Cl)cc1 [Compound 234-4, (4S,5R)-1,3-bis(4-chlorophenyl)-4-hydroxy-4-(3-(trifluoromethoxy)phenyl)-7-oxa-1,3-diazaspiro[4.4]nonan-2-one] | < 1 µM
28 | Cc1ccc(N2C(=O)N(c3ccc(C)cc3)C(O)(c3cccc(OC(F)(F)F)c3)C2C(C)C)cc1 (stereo not shown) [Compound 235, 4-hydroxy-5-isopropyl-1,3-di-p-tolyl-4-(3-(trifluoromethoxy)phenyl)imidazolidin-2-one] | < 1 µM
29 | O=C1N(c2ccc(Cl)cc2)C2(CC2)C(O)(c2cccc(OC(F)F)c2)N1c1ccc(Cl)cc1 (stereo not shown) [Compound 236, 4,6-bis(4-chlorophenyl)-7-(3-(difluoromethoxy)phenyl)-7-hydroxy-4,6-diazaspiro[2.4]heptan-5-one] | < 1 µM
30 | O=C1N(c2ccc(Cl)cc2)C(C2COC2)C(O)(c2cccc(OC(F)(F)F)c2)N1c1ccc(Cl)cc1 (stereo not shown) [Compound 237, 1,3-bis(4-chlorophenyl)-4-hydroxy-5-(oxetan-3-yl)-4-(3-(trifluoromethoxy)phenyl)imidazolidin-2-one] | < 1 µM
31 | COC[C@@H]1N(c2ccc(Cl)cc2)C(=O)N(c2ccc(Cl)cc2)C1(O)c1cccc(OC(F)F)c1 (stereo partly drawn) [Compound 238-1, (5S)-1,3-bis(4-chlorophenyl)-4-(3-(difluoromethoxy)phenyl)-4-hydroxy-5-(methoxymethyl)imidazolidin-2-one] | < 1 µM
32 | COC[C@H]1N(c2ccc(Cl)cc2)C(=O)N(c2ccc(Cl)cc2)C1(O)c1cccc(OC(F)F)c1 (stereo partly drawn) [Compound 238-2, (5R)-1,3-bis(4-chlorophenyl)-4-(3-(difluoromethoxy)phenyl)-4-hydroxy-5-(methoxymethyl)imidazolidin-2-one] | < 1 µM
33 | Cc1ccc(N2C(=O)N(c3ccc(C)cc3)C(O)(c3cccc(OC(F)(F)F)c3)C23CCC3)cc1 (stereo not shown) [Compound 239, 8-hydroxy-5,7-di-p-tolyl-8-(3-(trifluoromethoxy)phenyl)-5,7-diazaspiro[3.4]octan-6-one] | < 1 µM
34 | O=C1N(c2ccc(Cl)cc2)C2(CC(F)C2)C(O)(c2cccc(OC(F)(F)F)c2)N1c1ccc(Cl)cc1 (stereo not shown) [Compound 240, 5,7-bis(4-chlorophenyl)-2-fluoro-8-hydroxy-8-(3-(trifluoromethoxy)phenyl)-5,7-diazaspiro[3.4]octan-6-one] | < 1 µM
